Experimental data from patent US20240093150A1, “IMPROVED T-CELLS FOR CANCER THERAPY USING AMINO ACID STARVATION PATHWAYS” (UNIVERSITY HEALTH NETWORK, priority 2021, published 2024).

How the values were obtained:
P14 CD8+ T cells = experiment: Flow cytometry of activated mouse CD8+ T cells treated with halofuginone (cytokines, surface markers, phosphoflow, autophagosome staining); format: cell-based; settings: for IFN-γ in halo-treated cells: inhibitor concurrent with Halofuginone (3-MA 2.5 mM; Oligomycin 1 uM)
CD8+ T cells [1] = experiment: Seahorse and ATP quantification in halo-treated mouse CD8+ T cells; format: cell-based; settings: for enhanced OXPHOS (basal OCR) in halo-treated cells: inhibitor added concurrent with Halofuginone (3-MA 2.5 mM)
human CD8+ T cells = experiment: Human CD8+ T cells activated in the presence of halofuginone (Seahorse, flow cytometry, DMF5 TCR transduction); format: cell-based
Protocol: Peripheral blood mononuclear cells were obtained from healthy donors following institutional review board approval. Written informed consent was obtained from all donors who provided the samples. PBMCs were magnetically sorted for naïve CD8+ T cells (Miltenyi Biotec) and activated with CD3/CD28 Dynabeads (Invitrogen) at 1:1 ratio in complete IMDM for 5 days in the presence of Halo (12.5 ng/mL) or vehicle control. For DMF5 TCR transduction, purified naïve CD8+ T cells were stimulated with CD3/CD28 Dynabeads at 1:1 ratio in complete IMDM media and 100 IU/ml recombinant human IL-2. Two days after stimulation, T cells were infection with PG13-derived virus encoding DMF5 TCR and a truncated NGFR tag, separated by 2A sequences. Halofuginone (12.5 ng/mL) or vehicle control was added on days 0 and 2. Phenotype was analyzed on day 5.

CD8+ T cells [2] = experiment: Targeted mass spectrometry metabolic profile of halo-treated cells; format: cell-based, mouse; settings: halo vs vehicle
Protocol: Seahorse was performed as previously described (Saibil et al., 2019). ATP quantification was performed using a commercial kit (Sigma) according to the recommended protocol. For metabolic profiling of Halo treated cells, mass spectrometry was performed on metabolites extracted from cell pellets. Briefly, cell pellets were washed and snap frozen in 1 ml 80% methanol. Samples were probe sonicated for 5 seconds, power level 3 (Fisher Scientific Model 100 Sonicator). 5 ul of internal standard (Isotopically labeled amino acids, 1.25 mM, PN MSK-A2-1.2, Cambridge Isotope Laboratories) was added to a 100 ul aliquot of supernatant. 10 ul of this solution was diluted in 990 ul of buffer containing 95% acetonitrile, 5% 20 mM ammonium carbonate (pH 9.8). Quality control samples (QCs) were prepared by pooling 100 μl of each sample. All samples including QCs, where then analyzed by selected reaction monitoring (SRM) using a Waters XBridge Amide 1.0×50 mm, 3.5 μm column and a 10 mM ammonium carbonate (pH 10) acetonitrile buffer system coupled with a Sciex Qtrap 5500 triple quadrupole linear ion trap tandem mass spectrometer. The data acquisition included 317 transitions. Data were captured using Analyst, version 1.6.2 software (Sciex); peak integration was performed using Skyline, version 4.1 (Pino et al., 2020). […]

CD8+ T cells [3] = experiment: Ribo-Seq / RNA-seq gene expression profiling of halo-treated CD8+ T cells; format: cell-based, mouse; settings: halo vs vehicle
[4] = Halo 50 ng/mL last 48 hours, vs vehicle

Cn1cnc(N)c2ncnc1-2 [3MA]
4-1BB or granzyme B expression in halo-treated cells (P14 CD8+ T cells; cultured in the presence of 3MA 2.5 mM): no difference | IFN-γ in halo-treated cells (P14 CD8+ T cells): marked reduction | OXPHOS in vehicle-treated cells (CD8+ T cells [1]; 3-MA 2.5 mM): no effect | enhanced OXPHOS (basal OCR) in halo-treated cells (CD8+ T cells [1]): entirely abrogated

NC1(C(=O)O)CC2CCC1C2 (stereo not shown) [BCH]
halo-induced p-mTOR increase in the presence of inhibitor (P14 CD8+ T cells; halo-treated cells plus BCH): reversed | expression of 4-1BB, Granzyme B and IFN-γ in halo-treated cells (P14 CD8+ T cells; inhibitor added concurrent with Halofuginone (Rapamycin 20 nM)): inhibition of expression | enhanced OXPHOS (basal OCR) in halo-treated cells (CD8+ T cells [1]): did not affect

CCOC(=O)[C@@]1(CCCCCCOc2ccc(Cl)cc2)CO1 [etomoxir]
effect on OCR in halo-treated cells (CD8+ T cells [1]; Etomoxir 4 μm injected in Seahorse): minimal effects

O=C(CC1NCCCC1O)Cn1cnc2cc(Br)c(Cl)cc2c1=O (stereo not shown) [halofuginone]
expression of 4-1BB, Granzyme B and CD98 in TCR+ T cells (human CD8+ T cells; DMF5 TCR transduced, Halofuginone 12.5 ng/mL, day 5, majority of patients): increased expression | OXPHOS (human CD8+ T cells; Halo 12.5 ng/mL, 5 days): enhanced | expression of 4-1BB and CD98 (human CD8+ T cells; Halo 12.5 ng/mL, 5 days): increasing | transduction efficiency of the DMF5 TCR (human CD8+ T cells; Halofuginone 12.5 ng/mL added on days 0 and 2): did not inhibit | IFN-γ production (P14 CD8+ T cells; Halo 50 ng/mL for the last 48 hours of IL-2 expansion, vs vehicle): increased IFN-γ production | CD98 expression (P14 CD8+ T cells; [4]): enhanced | TNF-α and IL-2 production (P14 CD8+ T cells; [4]): to a lesser extent, increased | granzyme B expression (P14 CD8+ T cells; [4]): significant increase | polyfunctionality (co-expression of IFN-γ, TNF-α, IL-2) (P14 CD8+ T cells; [4]): increased polyfunctionality | surface expression of 4-1BB (P14 CD8+ T cells; flow cytometry, halo vs vehicle): increased percentage of cells expressing 4-1BB as well as a higher level of expression on a per cell basis | autophagy (fluorescent staining of autophagosomes) (P14 CD8+ T cells; halo-treated cells vs vehicle): increased evidence of autophagy | p-mTOR (P14 CD8+ T cells; halo-treated cells vs vehicle): increase in p-mTOR | surface markers of Tcm lineage (CD62L, CD44, CD127, CD25) (P14 CD8+ T cells; halo-treated cells, same as vehicle treated cells): CD62^Lo, CD44^Hi CD127^Lo and CD25^Hi | CD69+ CD103+ double-positive cells (P14 CD8+ T cells; halo-treated, unlike vehicle-treated control cells): induced a population of CD69^+ CD103^+ double-positive cells | levels of amino acids (CD8+ T cells [2]): primarily up-regulated | 4-1BB expression (RNA) (CD8+ T cells [3]): up-regulated | Trm-associated genes, transcriptionally or translationally (CD8+ T cells [3]): very few of the Trm-associated genes were up-regulated | electron transport chain (ETC) complex genes (CD8+ T cells [3]): increased both transcription and translation of all five complexes | genes associated with glycolysis, TCA cycle, fatty acid oxidation (CD8+ T cells [3]): Increased enrichment of genes associated with glycolysis and the TCA cycle, but not fatty acid oxidation | ribosomal-associated Bhlhe40 transcripts (CD8+ T cells [3]): marked increase | CD69 gene expression (CD8+ T cells [3]; among Trm-associated genes): one of the most upregulated genes | expression of costimulatory and co-inhibitory molecules (transcriptional, translational and protein level) (CD8+ T cells [3]; panel of markers other than 4-1BB): not enhanced | ATP levels (CD8+ T cells [1]; [4]): increase | OCR (oxygen consumption rate) (CD8+ T cells [1]; [4]): increase | OCR:ECAR ratio (CD8+ T cells [1]; [4]): increase

CC[C@H]1/C=C/C=C/C[C@@H](C)[C@H](O)[C@@](C)(O)C(=O)[C@@H](C)[C@H](O)[C@@H](C)C(=O)[C@@H](C)[C@H](O)[C@@H](C)/C=C/C(=O)O[C@@H]2[C@H](C)[C@H](CC1)O[C@]1(CC[C@H](C)[C@H](C[C@@H](C)O)O1)[C@H]2C [oligomycin]
IFN-γ in halo-treated cells (P14 CD8+ T cells): marked reduction
